From patent US7737118B2, “Rotational intrathecal analgesia” (Omeros Corporation, priority 2001, dated 2010)

Columns and labels:
Type in all cases: in vivo
[1] = tested on: male Sprague-Dawley rats; assay: Rat hindpaw withdrawal latency (HWL) to mechanical stimulation (Randall Selitto Test); settings: for % Changes of HWL to Mechanical Stimulation 10 Minutes After Intrathecal Injection, Left: Left hindpaw; for % Changes of HWL to Mechanical Stimulation 10 Minutes After Intrathecal Injection, Right: Right hindpaw
[2] = tested on: male Sprague-Dawley rats; assay: Rat hindpaw withdrawal latency (HWL) to thermal stimulation (hot-plate test, 52° C.); settings: for % Changes of HWL to Thermal Stimulation 10 Minutes After Intrathecal Injection, Left: Left hindpaw; for % Changes of HWL to Thermal Stimulation 10 Minutes After Intrathecal Injection, Right: Right hindpaw
[3] = tested on: male Sprague-Dawley rats; assay: Rat HWL study, both types of stimulation: analgesia and development of complete tolerance; settings: drug alone, intrathecal every 12 hrs; mechanical and thermal HWL
Procedure: Experiments were performed on male Sprague-Dawley rats having a weight of 200-250 g. The rats were housed in cages with free access to food and water. Room temperature was maintained at 24±2° C. and a 12 hr light/dark cycle was maintained. All experiments were conducted according to the guidelines of the Committee on Animal Research at the University of California at San Francisco. Every effort was made to minimize animal suffering.
A polyethylene catheter (Intramedic PE 10) was permanently implanted intrathecally with the inner tip at L3 to L5 in each animal. Rats displaying movement disorders following placement of the catheter were not used in the study. […]
In the morphine only group, 8 μg morphine HCl was injected every 12 hrs until complete tolerance developed and in the nociceptin only group, 10 nmol nociceptin was injected every 12 hrs until complete tolerance developed. These doses were chosen from previous studies that determined an equianalgesic dosing for these two drugs. […]
The rats were trained with the testing conditions for five days prior to the experiments to decrease the stress response caused by handling and measurements and to obtain baseline responses. The hindpaw withdrawal latency (HWL) was measured for both thermal and mechanical stimulation. […] The HWLs were measured 15 min after the second intrathecal injection on a daily basis. […]

[4] = day 1, intrathecal every 12 hrs: 8 μg morphine, 10 nmol nociceptin, or rotated every two days
[5] = day 2, intrathecal every 12 hrs: 8 μg morphine, 10 nmol nociceptin, or rotated every two days
[6] = day 3, intrathecal every 12 hrs: 8 μg morphine, 10 nmol nociceptin, or rotated every two days
[7] = day 4, intrathecal every 12 hrs: 8 μg morphine, 10 nmol nociceptin, or rotated every two days
[8] = day 5, intrathecal every 12 hrs: 8 μg morphine, or morphine/nociceptin rotated every two days
[9] = day 6, intrathecal every 12 hrs: 8 μg morphine, or morphine/nociceptin rotated every two days
[10] = day 1, drug alone, intrathecal (morphine 8 μg or nociceptin 10 nmol every 12 hrs)

CN1CC[C@]23c4c5ccc(O)c4O[C@H]2[C@@H](O)C=C[C@H]3[C@H]1C5.Cl [Morphine, morphine HCl]
% Changes of HWL to Mechanical Stimulation 10 Minutes After Intrathecal Injection, Left [1, 4]: 53.99 ± 2.96% | % Changes of HWL to Mechanical Stimulation 10 Minutes After Intrathecal Injection, Left [1, 5]: 47.69 ± 2.54% | % Changes of HWL to Mechanical Stimulation 10 Minutes After Intrathecal Injection, Left [1, 6]: 33.85 ± 1.60% | % Changes of HWL to Mechanical Stimulation 10 Minutes After Intrathecal Injection, Left [1, 7]: 31.37 ± 2.02% | % Changes of HWL to Mechanical Stimulation 10 Minutes After Intrathecal Injection, Left [1, 8]: 15.30 ± 1.39% | % Changes of HWL to Mechanical Stimulation 10 Minutes After Intrathecal Injection, Left [1, 9]: 3.26 ± 1.86% | % Changes of HWL to Mechanical Stimulation 10 Minutes After Intrathecal Injection, Right [1, 4]: 56.04 ± 3.38% | % Changes of HWL to Mechanical Stimulation 10 Minutes After Intrathecal Injection, Right [1, 5]: 46.74 ± 2.52% | % Changes of HWL to Mechanical Stimulation 10 Minutes After Intrathecal Injection, Right [1, 6]: 33.44 ± 1.03% | % Changes of HWL to Mechanical Stimulation 10 Minutes After Intrathecal Injection, Right [1, 7]: 28.84 ± 2.73% | % Changes of HWL to Mechanical Stimulation 10 Minutes After Intrathecal Injection, Right [1, 8]: 16.54 ± 1.26% | % Changes of HWL to Mechanical Stimulation 10 Minutes After Intrathecal Injection, Right [1, 9]: 2.72 ± 1.94% | HWL increase using mechanical stimulation [1, 10]: ~55% | % Changes of HWL to Thermal Stimulation 10 Minutes After Intrathecal Injection, Left [2, 4]: 66.26 ± 2.20% | % Changes of HWL to Thermal Stimulation 10 Minutes After Intrathecal Injection, Left [2, 5]: 61.25 ± 3.05% | % Changes of HWL to Thermal Stimulation 10 Minutes After Intrathecal Injection, Left [2, 6]: 51.66 ± 1.73% | % Changes of HWL to Thermal Stimulation 10 Minutes After Intrathecal Injection, Left [2, 7]: 43.63 ± 1.38% | % Changes of HWL to Thermal Stimulation 10 Minutes After Intrathecal Injection, Left [2, 8]: 23.85 ± 1.03% | % Changes of HWL to Thermal Stimulation 10 Minutes After Intrathecal Injection, Left [2, 9]: −1.30 ± 2.36% | % Changes of HWL to Thermal Stimulation 10 Minutes After Intrathecal Injection, Right [2, 4]: 66.66 ± 1.51% | % Changes of HWL to Thermal Stimulation 10 Minutes After Intrathecal Injection, Right [2, 5]: 63.11 ± 0.64% | % Changes of HWL to Thermal Stimulation 10 Minutes After Intrathecal Injection, Right [2, 6]: 48.74 ± 2.40% | % Changes of HWL to Thermal Stimulation 10 Minutes After Intrathecal Injection, Right [2, 7]: 42.45 ± 1.70% | % Changes of HWL to Thermal Stimulation 10 Minutes After Intrathecal Injection, Right [2, 8]: 25.07 ± 2.07% | % Changes of HWL to Thermal Stimulation 10 Minutes After Intrathecal Injection, Right [2, 9]: 0.51 ± 1.61% | HWL increase using thermal stimulation [2, 10]: approximately 67% | day by which total/complete tolerance exists [3]: 6 days
